The text below walks through data of patent publication US20220235006A1, “PYRIDINE DERIVATIVES AS TMEM16A MODULATORS FOR USE IN THE TREATMENT OF RESPIRATORY CONDITIONS” (TMEM16A LIMITED, priority 2019, published 2022).

The structures appear in SMILES notation.

In series [1] the target is T1, human TMEM16A (TMEM16Aabc variant) (Homo sapiens, UniProt Q5XXA6, DEL476-501).
T1 sequence (Q5XXA6 with tags, fused parts or gaps isoform Q5XXA6-5 DEL539-564): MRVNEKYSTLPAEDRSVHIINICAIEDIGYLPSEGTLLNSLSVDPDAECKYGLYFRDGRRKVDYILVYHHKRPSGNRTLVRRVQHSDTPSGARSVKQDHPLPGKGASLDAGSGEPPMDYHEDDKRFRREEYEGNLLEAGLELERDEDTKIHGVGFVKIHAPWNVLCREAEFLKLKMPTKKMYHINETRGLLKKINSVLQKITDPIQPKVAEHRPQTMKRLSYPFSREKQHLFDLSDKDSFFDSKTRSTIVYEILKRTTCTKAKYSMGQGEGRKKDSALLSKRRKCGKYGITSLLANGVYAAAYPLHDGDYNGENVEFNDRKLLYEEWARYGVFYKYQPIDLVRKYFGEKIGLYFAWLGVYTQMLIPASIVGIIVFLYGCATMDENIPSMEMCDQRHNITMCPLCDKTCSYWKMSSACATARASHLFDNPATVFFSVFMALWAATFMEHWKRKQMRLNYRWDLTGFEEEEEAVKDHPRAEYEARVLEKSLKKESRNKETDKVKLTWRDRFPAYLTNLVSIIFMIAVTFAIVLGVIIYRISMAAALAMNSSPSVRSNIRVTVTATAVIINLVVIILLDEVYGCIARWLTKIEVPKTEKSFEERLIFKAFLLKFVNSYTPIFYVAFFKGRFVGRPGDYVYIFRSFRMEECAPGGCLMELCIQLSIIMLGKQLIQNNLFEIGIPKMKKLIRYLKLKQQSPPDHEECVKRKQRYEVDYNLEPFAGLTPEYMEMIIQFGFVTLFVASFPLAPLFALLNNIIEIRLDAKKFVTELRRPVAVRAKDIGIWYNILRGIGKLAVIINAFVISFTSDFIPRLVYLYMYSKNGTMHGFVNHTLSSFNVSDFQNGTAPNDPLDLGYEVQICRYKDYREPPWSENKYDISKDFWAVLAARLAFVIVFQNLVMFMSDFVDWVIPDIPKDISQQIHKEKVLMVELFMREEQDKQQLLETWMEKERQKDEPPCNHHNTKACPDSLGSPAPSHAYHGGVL
Nature of the series: Automated whole-cell patch clamp (Qpatch) TMEM16A potentiator assay in recombinant FRT cells. Format: cell-based. To be noted: for activation at 3.33 µM: percentage increase of baseline TMEM16A current, minimum n = 2, read-out: % Potentiation @ 3.33 uM Avg; for EC50: minimum n = 2. As for the experimental part: Automated Whole-Cell Patch Clamp Assay to Detect TMEM16A Activity in Recombinant Cells
Fisher rat thyroid (FRT) cells stably expressing human TMEM16A (TMEM16Aabc variant; Dr Luis Galietta, Insituto Giannina, Italy) were cultured in T-75 flasks in Hams F-12 media with Coon's modification (Sigma) supplemented with 10% (v/v) foetal bovine serum, penicillin-streptomycin (10,000 U/mL/10000 μg/mL), G-418 (750 μg/mL), L-glutamine (2 mM) and sodium bicarbonate solution (7.5% v/v). At ˜90% confluence cells were harvested for experiments by detachment with a 2:1 (v/v) mixture of Detachin (BMS Biotechnology) and 0.25% (w/v) trypsin-EDTA.
FRT-TMEM16A cells were whole-cell patch clamped using an automated planar patch clamp system (Qpatch, Sophion). Briefly, once high resistance (GOhm) seals were established between the cells and the planar recording array the patch was ruptured using suction pulses to establish the whole-cell recording configuration of the patch clamp technique. The assay employed the following solutions (all reagents Sigma): Intracellular solution (mM): N-methyl-D-glucamine 130, CaCl2 18.2, MgCl2 1, HEPES 10, EGTA 10, BAPTA 20, Mg-ATP 2, pH 7.25, 325 mOsm with sucrose.
Extracellular solution (mM): N-methyl-D-glucamine 130, CaCl2 2, MgCl2 1, HEPES 10, pH 7.3, 320 mOsm with sucrose.
The intracellular solution buffers intracellular calcium at levels required to give ˜20% activation of the maximal TMEM16A mediated current (E020 for calcium ions). Cells were voltage clamped at a holding potential of −70mV and a combined voltage step (to +70 mV)/ramp (−90 my to +90 mV) was applied at 0.05 Hz. After a period of current stabilisation test compounds, solubilised in 100% (v/v) DMSO and subsequently diluted into extracellular solution, were applied to generate a cumulative concentration response curve. Each concentration of test compound was incubated for 5 minutes before addition of the next concentration. After the final concentration was tested a supramaximal concentration of either a known active positive modulator or the TMEM16A inhibitor, CaCCinhA01 (Del La Fuente et al, 2008) was added to define the upper and lower limits of the assay.
Compound activity was quantified by measuring the increase in current upon compound addition and expressing this as a percentage increase of baseline TMEM16A current level.
Peak TMEM16A current at +70 mV was plotted as a function of time over the assay period. Baseline current (IBL) was measured after a period of stabilisation. The increase in current for each compound addition was determined by taking the peak current during the incubation period and subtracting the current from the previous recording period and then expressing this as a percentage of the baseline current (% potentiation). For test compound concentration 1 in FIG. 1 this is:
For each additional concentration tested the increase in current was determined by subtracting the current from the previous incubation period and normalising the baseline value—for test concentration 2 in FIG. 1 this is:
The values for each test concentration were plotted as a cumulative function of concentration eg. for test concentration two this would be the sum of the peak changes measured during concentration one plus concentration two.
In general terms: Patch clamp records ionic current or voltage across a cell membrane.

A short description of series [2]: Log D (pH7.4 shake flask). Format: physicochemical. To be noted: pH 7.4; 1-octanol/phosphate buffer shake flask; read-out: mLogD (pH 7.4). As for the experimental part:
Phosphate buffer (1 M) was diluted to 20 mM with deionised water and adjusted to pH 7.4 with phosphoric acid or sodium hydroxide. 1-octanol and phosphate buffer (20 mM) were saturated overnight by tumbling. The two phases were separated using a separation funnel. 5 μL of 5 mM compound cassette was added to 495 μL of octanol-saturated buffer and 495 μL buffer saturated octanol in a 96-well plate (top concentration 50 μM). Plate was shaken for 1 h and centrifuged at 25° C. for 5 min. 200 μL of each phase was transferred to a separate plate. The octanol layer was sampled first to avoid cross contamination. 5 μL of the solutions were transferred to 495 μL of quench solution* (max concentration 0.5 μM). In addition, 40 μL of buffer solution was added to 360 μL of quench solvent (max concentration 5 μM). Samples were analysed by LC-MS/MS. Benchmarking against a calibration curve for each compound and with reference to the control compounds sulpride, diclofenac, chlorpromazine and tamoxifen. *Quench solution was a 1:3:1 mixture (v/v/v) of Acetonitrile containing 0.1% formic acid and imipramine/labetalol, 200 nM:Acetonitrile:Water.

For orientation: EC50 means the concentration giving half of the maximal effect. In the case of `CC1(NC(=O)c2cc(NC(=O)Cc3cc(O)c(C(C)(C)C)cc3F)ccn2)CC1` [Example 1, 4-[[2-(4-tert-Butyl-2-fluoro-5-hydroxy-phenyl)acetyl]amino]-N-(1-methylcyclopropyl)pyridine-2-carboxamide], in series [1], the activation at 3.33 µM came to 248% and the 50% effective concentration (EC50) is 38 nM. Further, the logD in series [2] was over 4.2.

As for `CC(C)(C#N)NC(=O)c1cc(NC(=O)Cc2cc(O)c(C(C)(C)C)cc2F)ccn1` [Example 1.4], in series [1], the activation at 3.33 µM worked out at 200% and the EC50 was 37 nM. For the same compound, in series [2], the logD is over 4.1.

For `CC(C)(C)c1cc(F)c(CC(=O)Nc2ccnc(C(=O)NC3(C(F)(F)F)CC3)c2)cc1O` [Example 1.7], in series [1], the activation at 3.33 µM is 202% and the half-maximal effective concentration (EC50) turned out to be 25 nM. Besides, the logD in series [2] was over 4.

`CC(C)(C)NC(=O)c1cc(NC(=O)Cc2cc(O)c(C3(C#N)CC3)cc2F)ccn1` [Example 2.4, N-tert-Butyl-4-[[2-[4-(1-cyanocyclopropyl)-2-fluoro-5-hydroxy-phenyl]acetyl]amino]pyridine-2-carboxamide]: in series [1], the activation at 3.33 µM was found to be 356% and the EC50 stood at 69 nM. Besides, in series [2], the logD is 3.7.

In the case of `O=C(Cc1cc(O)c(C2(C(F)(F)F)CCO2)cc1F)Nc1ccnc(C(=O)NC2(C(F)(F)F)CC2)c1` (stereo not drawn) [Example 2.10, 4-[[2-[2-Fluoro-5-hydroxy-4-[2-(trifluoromethyl)oxetan-2-yl]phenyl]acetyl]amino]-N-[1-(trifluoromethyl)cyclopropyl]pyridine-2-carboxamide], in series [1], the activation at 3.33 µM worked out at 434% and the 50% effective concentration (EC50) turned out to be 30 nM. For the same compound, the logD in series [2] stood at 4.2.

Consider `CC(C)(C#N)NC(=O)c1cc(NC(=O)Cc2cc(O)c(C(C)(C)C)cc2F)c(F)cn1` [Example 3, 4-[[2-(4-tert-Butyl-2-fluoro-5-hydroxy-phenyl)acetyl]amino]-N-(1-cyano-1-methyl-ethyl)-5-fluoro-pyridine-2-carboxamide], for which, in series [1], the activation at 3.33 µM worked out at 353% and the EC50 was 132 nM. Moreover, the logD in series [2] amounted to 3.9.

Regarding `CC(C)(C#N)NC(=O)c1cc(NC(=O)Cc2cc(O)c(C(C)(C)C)cc2Cl)ccn1` [Example 10, 4-[[2-(4-tert-Butyl-2-chloro-5-hydroxy-phenyl)acetyl]amino]-N-(1-cyano-1-methyl-ethyl)pyridine-2-carboxamide], in series [1], the activation at 3.33 µM was 310% and the concentration giving a half-maximal response (EC50) was 52 nM. Besides, the logD in series [2] is over 4.

`CC1(NC(=O)c2cc(NC(=O)Cc3cc(O)c(C(C)(C)CO)cc3F)ccn2)CCOCC1` [Example 16.1, 4-[[2-[2-Fluoro-5-hydroxy-4-(2-hydroxy-1,1-dimethyl-ethyl)phenyl]acetyl]amino]-N-(4-methyltetrahydropyran-4-yl)pyridine-2-carboxamide]: in series [1], the activation at 3.33 µM worked out at 214% and the EC50 is 181 nM.

Turning to `CC(C)(C#N)NC(=O)c1cc(NC(=O)Cc2cc(O)c(C(C)(C)CO)cc2F)ccn1` [Example 16.2, N-(1-Cyano-1-methyl-ethyl)-4-[[2-[2-fluoro-5-hydroxy-4-(2-hydroxy-1,1-dimethyl-ethyl)phenyl]acetyl]amino]pyridine-2-carboxamide], in series [1], the activation at 3.33 µM is 295% and the EC50 worked out at 115 nM.

With `CC(CO)c1cc(F)c(CC(=O)Nc2ccnc(C(=O)NC3(C)CCOCC3)c2)cc1O` (stereo not drawn) [Example 16.3, 4-[[2-[2-Fluoro-5-hydroxy-4-(2-hydroxy-1-methyl-ethyl)phenyl]acetyl]amino]-N-(4-methyltetrahydropyran-4-yl)pyridine-2-carboxamide], in series [1], the activation at 3.33 µM came out at 140% and the half-maximal effective concentration (EC50) turned out to be 407 nM.

For the compound `CC(C)(O)c1cc(F)c(CC(=O)Nc2ccnc(C(=O)NC3(C(F)(F)F)CC3)c2)c(Cl)c1O` [Example 18, 4-[[2-[2-Chloro-6-fluoro-3-hydroxy-4-(1-hydroxy-1-methyl-ethyl)phenyl]acetyl]amino]-N-[1-(trifluoromethyl)cyclopropyl]pyridine-2-carboxamide], in series [1], the activation at 3.33 µM was 315% and the EC50 worked out at 268 nM.

`CC(C)(O)c1cc(Cl)c(CC(=O)Nc2ccnc(C(=O)NC3(C(F)(F)F)CC3)c2)cc1O` [Example 19, 4-[[2-[2-Chloro-5-hydroxy-4-(1-hydroxy-1-methyl-ethyl)phenyl]acetyl]amino]-N-[1-(trifluoromethyl)cyclopropyl]pyridine-2-carboxamide]: in series [1], the activation at 3.33 µM is 244% and the 50% effective concentration (EC50) was 46 nM.

Consider `CC(CO)c1cc(F)c(CC(=O)Nc2ccnc(C(=O)NC3(C(F)(F)F)CC3)c2)cc1O` (stereo not drawn) [Example 20, 4-[[2-[2-Fluoro-5-hydroxy-4-(2-hydroxy-1-methyl-ethyl)phenyl]acetyl]amino]-N-[1-(trifluoromethyl)cyclopropyl]pyridine-2-carboxamide], for which, in series [1], the activation at 3.33 µM amounted to 295% and the concentration for a half-maximal effect (EC50) came to 100 nM.
